Test results published in PubChem BioAssay (NCI).
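Protocol summary: plate cells (96-well), add compound at 5 concentrations, incubate 48 h, interpolate endpoints linearly. Abbreviation: GI50, concentration required for 50% inhibition of growth. TGI: total growth inhibition.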

Experiments:
Experiment in all cases: growth of human tumour cells (NCI), 48 h
[1] = test system: SF-539 CNS
[2] = test system: SK-MEL-2 melanoma
[3] = test system: NCI-H460 lung
[4] = test system: SF-268 CNS
[5] = test system: RPMI-8226 leukemia
[6] = test system: SN12C renal
[7] = test system: NCI-H226 lung
[8] = test system: HOP-62 NSCLC
[9] = test system: KM12 colon
[10] = test system: CCRF-CEM leukemia

Structure (SMILES)	TGI [1]	TGI [2]	TGI [3]	TGI [4]	TGI [5]	TGI [6]	TGI [7]	TGI [8]	TGI [9]	TGI [10]	GI50 [1]	GI50 [2]	GI50 [3]	GI50 [4]	GI50 [5]	GI50 [6]	GI50 [7]	GI50 [8]	GI50 [9]	GI50 [10]
COc1cc([N+](=O)[O-])c(S(=O)(=O)O)cc1N	> 100 µM	> 100 µM	> 100 µM	> 100 µM	> 100 µM	> 100 µM	> 100 µM	> 100 µM	> 100 µM	> 100 µM										
O=C(C[C@@]1(O)C(=O)Nc2c(Cl)ccc(Cl)c21)c1ccc(C2CC2)cc1	3.64 µM	18 µM	11.4 µM	18.5 µM	21.4 µM	17.7 µM	19.7 µM	19.2 µM	14.2 µM	> 100 µM	0.286 µM	0.515 µM	0.359 µM	1.3 µM	0.433 µM	0.88 µM	1.54 µM	0.516 µM	0.318 µM	0.341 µM
Cc1cc(O)c(C2=NN(c3ccc(S(N)(=O)=O)cc3)C(c3ccccc3O)C2)cc1Cl (stereo not given)	3.04 µM	11.6 µM	4.38 µM	8.06 µM	10.1 µM	8.65 µM	6.05 µM	3.68 µM	3.4 µM	> 24.7 µM	1.61 µM	4.85 µM	2.07 µM	2.64 µM	2.24 µM	2.8 µM	1.83 µM	1.75 µM	1.74 µM	3.12 µM
C=CC(=O)NCCOc1cccc(Nc2cc(NCCCNC(=O)C3CCC3)c(Br)cn2)c1	2.21 µM	6.55 µM	4.53 µM	3.73 µM	> 25 µM	> 25 µM	> 25 µM	4.98 µM	> 25 µM	> 25 µM	0.568 µM	2.62 µM	1.12 µM	0.482 µM	1.66 µM	0.623 µM	0.613 µM	0.302 µM	0.954 µM	1.04 µM
CCN1/C(=C/C=C/C=C/c2sc3ccccc3[n+]2CC)Sc2ccccc21	2.49 µM	2.72 µM	1.06 µM	1.62 µM	2.21 µM	1.76 µM	2.99 µM	1.54 µM	1.4 µM	> 21.8 µM	0.377 µM	0.979 µM	0.2 µM	0.431 µM	0.149 µM	0.327 µM	0.344 µM	0.42 µM	0.378 µM	0.353 µM
Fc1c[c-]c(-c2ccccn2)c(F)c1.[CH3-].[Pt+2].c1ccc([PH+](c2ccccc2)c2ccccn2)cc1	3.07 µM	5.86 µM	4.91 µM	5.18 µM	4.44 µM	4.24 µM	3.8 µM	44.2 µM	6.49 µM	> 100 µM	1.58 µM	2.22 µM	1.63 µM	1.89 µM	0.412 µM	1.51 µM	1.73 µM	4.16 µM	2.53 µM	1.38 µM
CSC1=Nc2c(c(C)c(-c3ccccc3)n2CCCCl)C2=NC(=O)CN12	14 µM	27.6 µM	15 µM	47.6 µM	66.5 µM	39 µM	29.8 µM	63.1 µM	18.7 µM	> 100 µM	3.42 µM	10.4 µM	3.7 µM	8.57 µM	3.68 µM	6.28 µM	11 µM	11 µM	4.2 µM	5.08 µM
O=C(N[C@@H]1C=CCC[C@@H]1c1ccccc1)OCc1ccccc1	33.5 µM	32.4 µM	34.7 µM	59 µM	57.2 µM	31.1 µM	36.4 µM	34.6 µM	33.9 µM	43.9 µM										
COc1ccc2c(c1)C(=O)c1c-2c(OCCN(C)C)nc2cc(OC)ccc12	3.32 µM	10.3 µM	1.51 µM	2.84 µM	5.09 µM	2.69 µM	3.32 µM	8.04 µM	2.14 µM	2.85 µM	1.61 µM	3.31 µM	0.411 µM	1.12 µM	1.71 µM	1.06 µM	1.33 µM	2.02 µM	0.759 µM	0.536 µM
O=c1c2cc(Br)ccc2nc(-c2ccccc2)n1NCC1(O)OCC(O)C(O)C1O (stereo not given)	> 100 µM	> 100 µM	> 100 µM	> 100 µM	> 100 µM	> 100 µM	> 100 µM	> 100 µM	> 100 µM	> 100 µM										
COc1ccc(S(=O)(=O)NC2=NCCN2C(=S)SN2CCn3c2nsc3=S)cc1OC	> 100 µM	75.1 µM	> 100 µM	79.2 µM	27.5 µM	54.9 µM	81.5 µM	78.3 µM	52 µM	30.9 µM	34.3 µM	24.1 µM	28.1 µM	23.2 µM	7.93 µM	22.6 µM	26.5 µM	27.5 µM	21.2 µM	11.3 µM
CCCCCCCCCCCCOC1C(CNCC2OC3OC(C)(C)OC3C2NC(=O)Nc2ccc(C(F)(F)F)cc2)OC2OC(C)(C)OC21 (stereo not given)	13.9 µM	19.3 µM	11.8 µM	16.6 µM	18.7 µM	15.3 µM	16.4 µM	15.1 µM	8.45 µM	12.5 µM	7.09 µM	9.09 µM	4.23 µM	7.93 µM	7.06 µM	7.04 µM	7.59 µM	8.1 µM	3.7 µM	2.45 µM
O=C1OCC2=C1C(c1cccc(C(F)(F)F)c1)c1cc3c(cc1N2CCO)OCO3 (stereo not given)	2.73 µM	> 50 µM	> 50 µM	> 50 µM	> 50 µM	> 50 µM	> 50 µM	> 50 µM	> 50 µM	> 50 µM	0.884 µM	1.43 µM	1.54 µM	4.78 µM	1.79 µM	2.9 µM	21.7 µM	1.97 µM	1.88 µM	0.955 µM
